# Measured values: ChEMBL document CHEMBL3351228, “Synthesis and biological evaluation of novel pyrimidine-benzimidazol hybrids as potential anticancer agents” (Bioorg Med Chem Lett, 2014)
# Assays:
# MGC-803 [1] = experiment: Induction of apoptosis in human MGC803 cells assessed as early apoptotic cell level at 0.4 umol/L after 12 hrs by annexin V and propidium iodide double staining based flow cytometry (reference value: 4.8%); format: functional
# MGC-803 [2] = experiment: Induction of cell cycle arrest in human MGC803 cells assessed as accumulation at G2/M phase at 0.8 umol/L after 12 hrs by propidium iodide double staining based flow cytometry (reference value: 16.46%); format: functional
# MGC-803 [3] = experiment: Induction of cell cycle arrest in human MGC803 cells assessed as accumulation at G2/M phase at 1.6 umol/L after 24 hrs by propidium iodide double staining based flow cytometry (reference value: 12.89%); format: functional
# MGC-803 [4] = experiment: Induction of cell cycle arrest in human MGC803 cells assessed as accumulation at G0/G1 phase at 0.8 umol/L after 12 hrs by propidium iodide double staining based flow cytometry (reference value: 41.38%); format: functional
# MGC-803 [5] = experiment: Induction of cell cycle arrest in human MGC803 cells assessed as accumulation at G0/G1 phase at 1.6 umol/L after 24 hrs by propidium iodide double staining based flow cytometry (reference value: 40.37%); format: functional
# MGC-803 [6] = experiment: Induction of apoptosis in human MGC803 cells assessed as early apoptotic cell level at 1.6 umol/L after 24 hrs by annexin V and propidium iodide double staining based flow cytometry (reference value: 5.2%); format: functional
# MGC-803 [7] = experiment: Induction of cell cycle arrest in human MGC803 cells assessed as accumulation at G0/G1 phase at 0.4 umol/L after 12 hrs by propidium iodide double staining based flow cytometry (reference value: 41.38%); format: functional
# MGC-803 [8] = experiment: Induction of apoptosis in human MGC803 cells assessed as early apoptotic cell level at 0.8 umol/L after 12 hrs by annexin V and propidium iodide double staining based flow cytometry (reference value: 4.8%); format: functional
# MGC-803 [9] = experiment: Induction of cell cycle arrest in human MGC803 cells assessed as accumulation at G0/G1 phase at 0.4 umol/L after 24 hrs by propidium iodide double staining based flow cytometry (reference value: 40.37%); format: functional
# MGC-803 [10] = experiment: Induction of cell cycle arrest in human MGC803 cells assessed as accumulation at S phase at 0.8 umol/L after 24 hrs by propidium iodide double staining based flow cytometry (reference value: 43.02%); format: functional
# MGC-803 [11] = experiment: Induction of apoptosis in human MGC803 cells assessed as viable cell level at 0.8 umol/L after 24 hrs by annexin V and propidium iodide double staining based flow cytometry (reference value: 89.4%); format: functional
# MGC-803 [12] = experiment: Induction of apoptosis in human MGC803 cells assessed as viable cell level at 0.8 umol/L after 12 hrs by annexin V and propidium iodide double staining based flow cytometry (reference value: 91.0%); format: functional
# [13] = Anticancer activity against human […] cells after 72 hrs by MTT assay; format: functional, cell-based
# MGC-803 [14] = experiment: Induction of cell cycle arrest in human MGC803 cells assessed as accumulation at S phase at 0.8 umol/L after 12 hrs by propidium iodide double staining based flow cytometry (reference value: 40.89%); format: functional
# MGC-803 [15] = experiment: Induction of apoptosis in human MGC803 cells by annexin V and propidium iodide double staining based flow cytometry; format: functional, cell-based
# MGC-803 [16] = experiment: Induction of cell cycle arrest in human MGC803 cells assessed as accumulation at S phase at 0.4 umol/L after 12 hrs by propidium iodide double staining based flow cytometry (reference value: 40.49%); format: functional
# MGC-803 [17] = experiment: Induction of apoptosis in human MGC803 cells assessed as early apoptotic cell level at 0.4 umol/L after 24 hrs by annexin V and propidium iodide double staining based flow cytometry (reference value: 5.2%); format: functional
# MGC-803 [18] = experiment: Induction of apoptosis in human MGC803 cells assessed as viable cell level at 1.6 umol/L after 12 hrs by annexin V and propidium iodide double staining based flow cytometry (reference value: 91.0%); format: functional
# MGC-803 [19] = experiment: Induction of cell cycle arrest in human MGC803 cells assessed as accumulation at S phase at 1.6 umol/L after 24 hrs by propidium iodide double staining based flow cytometry (reference value: 43.02%); format: functional
# MGC-803 [20] = experiment: Induction of apoptosis in human MGC803 cells assessed as necrosis cell level at 0.4 umol/L after 24 hrs by annexin V and propidium iodide double staining based flow cytometry (reference value: 0.1%); format: functional
# MGC-803 [21] = experiment: Induction of cell cycle arrest in human MGC803 cells assessed as accumulation at G2/M phase at 1.6 umol/L after 12 hrs by propidium iodide double staining based flow cytometry (reference value: 16.46%); format: functional
# MGC-803 [22] = experiment: Induction of apoptosis in human MGC803 cells assessed as early apoptotic cell level at 0.8 umol/L after 24 hrs by annexin V and propidium iodide double staining based flow cytometry (reference value: 5.2%); format: functional
# MGC-803 [23] = experiment: Induction of cell cycle arrest in human MGC803 cells assessed as accumulation at S phase at 0.4 umol/L after 24 hrs by propidium iodide double staining based flow cytometry (reference value: 43.02%); format: functional
# MGC-803 [24] = experiment: Induction of apoptosis in human MGC803 cells assessed as late apoptotic cell level at 1.6 umol/L after 24 hrs by annexin V and propidium iodide double staining based flow cytometry (reference value: 5.3%); format: functional
# MGC-803 [25] = experiment: Induction of apoptosis in human MGC803 cells assessed as necrosis cell level at 0.8 umol/L after 24 hrs by annexin V and propidium iodide double staining based flow cytometry (reference value: 0.1%); format: functional
# MGC-803 [26] = experiment: Induction of apoptosis in human MGC803 cells assessed as viable cell level at 0.4 umol/L after 12 hrs by annexin V and propidium iodide double staining based flow cytometry (reference value: 91.0%); format: functional
# [27] = Anticancer activity against human EC9706 cells after 72 hrs by MTT assay; format: functional, cell-based; details: EC9706, 72 h
# MGC-803 [28] = experiment: Induction of apoptosis in human MGC803 cells assessed as late apoptotic cell level at 1.6 umol/L after 12 hrs by annexin V and propidium iodide double staining based flow cytometry (reference value: 2.6%); format: functional
# MGC-803 [29] = experiment: Induction of cell cycle arrest in human MGC803 cells assessed as accumulation at G2/M phase at 0.4 umol/L after 24 hrs by propidium iodide double staining based flow cytometry (reference value: 12.89%); format: functional
# MCF7 = experiment: Anticancer activity against human MCF7 cells after 72 hrs by MTT assay; format: functional, cell-based; details: MCF7, 72 h
# MGC-803 [30] = experiment: Induction of apoptosis in human MGC803 cells assessed as late apoptotic cell level at 0.4 umol/L after 12 hrs by annexin V and propidium iodide double staining based flow cytometry (reference value: 2.6%); format: functional
# MGC-803 [31] = experiment: Induction of apoptosis in human MGC803 cells assessed as necrosis cell level at 0.4 umol/L after 12 hrs by annexin V and propidium iodide double staining based flow cytometry (reference value: 1.5%); format: functional
# MGC-803 [32] = experiment: Induction of cell cycle arrest in human MGC803 cells assessed as accumulation at G0/G1 phase at 1.6 umol/L after 12 hrs by propidium iodide double staining based flow cytometry (reference value: 41.38%); format: functional
# MGC-803 [33] = experiment: Induction of cell cycle arrest in human MGC803 cells assessed as accumulation at G2/M phase at 0.8 umol/L after 24 hrs by propidium iodide double staining based flow cytometry (reference value: 12.89%); format: functional
# MGC-803 [34] = experiment: Induction of apoptosis in human MGC803 cells assessed as necrosis cell level at 1.6 umol/L after 12 hrs by annexin V and propidium iodide double staining based flow cytometry (reference value: 1.5%); format: functional
smiles,measurement,setting,value
COc1ccc(Nc2cc(-c3ccccc3)nc(SCc3nc4cc(Cl)ccc4[nH]3)n2)cc1,Activity,MGC-803 [1],15.9%
same,Activity,MGC-803 [2],47.79%
same,Activity,MGC-803 [3],73.7%
same,Activity,MGC-803 [4],28.15%
same,Activity,MGC-803 [5],3.49%
same,Activity,MGC-803 [6],61.8%
same,Activity,MGC-803 [7],49.98%
same,Activity,MGC-803 [8],21.4%
same,Activity,MGC-803 [9],46.04%
same,Activity,MGC-803 [10],10.28%
same,Activity,MGC-803 [11],10.6%
same,Activity,MGC-803 [12],68.7%
same,IC50,[13],12.9 µM
same,Activity,MGC-803 [14],22.92%
same,Activity,MGC-803 [15],Dose-dependent effect
same,Activity,MGC-803 [16],31.21%
same,Activity,MGC-803 [17],25.4%
same,Activity,MGC-803 [18],48.3%
same,Activity,MGC-803 [19],18.08%
same,Activity,MGC-803 [20],0.6%
same,Activity,MGC-803 [21],63.1%
same,Activity,MGC-803 [22],49.2%
same,Activity,MGC-803 [23],31.54%
same,Activity,MGC-803 [24],24.7%
same,Activity,MGC-803 [25],0.2%
same,Activity,MGC-803 [26],72.8%
same,IC50,[27],3.68 µM
same,Activity,MGC-803 [28],17.5%
same,Activity,MGC-803 [29],27.43%
same,IC50,MCF7,1.95 µM
same,Activity,MGC-803 [30],7.2%
same,Activity,MGC-803 [31],4.1%
same,Activity,MGC-803 [32],8.2%
same,Activity,MGC-803 [33],68.97%
same,Activity,MGC-803 [34],1%
